The values that follow are results of earlier work, collected in patent publication US20190343122A1, “IMPROVED INSECT CONTROL STRATEGIES UTILIZING PHEROMONES AND RNAI” (Provivi, Inc., priority 2016, published 2019).

The test system of one data set is aphids. The note with it: in vivo.
Another data set relates to E. heros. The note with it: female E. heros.
For another data set, the system named is target genes of pests. The note with it: Noctuidae Spodoptera exigua.

Consider `CCCCCCC=O` [Heptanal], for which the “attractiveness of an oviposition substrate” value with mated H. armigera is “significantly increase the attractiveness”. As for `CNC(=O)Oc1cccc2ccccc12` [Sevin, carbaryl], the effectiveness against aphids entry in the data set on aphids is “not effective against many aphids”. Regarding `CCCC(C)CCCC(C)CCCC(C)C(=O)OC` (centres unmarked) [TMTD, methyl 2,6,10-trimethyltridecanoate], the attraction to lures entry with E. heros is recorded as “attracted”. Take `O=Cc1ccccc1` [benzaldehyde]: in the data set on mated H. armigera, the “attractiveness of an oviposition substrate” value is listed as “significantly increase the attractiveness”. On to PGCP, for which, in the data set with target genes of pests, the Larval mortality entry was “Larval mortality increased”.
